Measurements as given in the supplement of paper PMC10307832.

Tests used:
Assay in all cases: relative viability (nuclei count vs DMSO), 5 days (fraction); higher = more cells survive
LU99A = system: LU99A
In short: (§1)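 Medians of duplicate plates are given as relative viability. That measure is the nuclei count in treated wells divided by the count in vehicle wells. Counts were taken on 4× images of lung cancer cell lines in 1536-well plates, 5 days after pin-tool dosing the day after seeding with one drug alone or a fixed anchor-drug dose plus five library-drug doses (not always all listed) in √10 steps.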

RERF-LC-KJ = system: RERF-LC-KJ
In short: as §1

SW 1573 = system: SW 1573
In short: as §1

SK-MES-1 = system: SK-MES-1
In short: as §1

NCI-H1734 = system: NCI-H1734
In short: as §1

NCI-H727 = system: NCI-H727
In short: as §1

HCC-78 = system: HCC-78
In short: as §1

NCI-H522 = system: NCI-H522
In short: as §1

NCI-H2126 = system: NCI-H2126
In short: as §1

NCI-H1563 = system: NCI-H1563
In short: as §1

BEN = system: BEN
In short: as §1

LK-2 = system: LK-2
In short: as §1

NCI-H1792 = system: NCI-H1792
In short: as §1

LCLC-97TM1 = system: LCLC-97TM1
In short: as §1

EKVX = system: EKVX
In short: as §1

NCI-H1944 = system: NCI-H1944
In short: as §1

EMC-BAC-2 = system: EMC-BAC-2
In short: as §1

COR-L 105 = system: COR-L 105
In short: as §1

NCI-H358 = system: NCI-H358
In short: as §1

EPLC-272H = system: EPLC-272H
In short: as §1

HCC-827 = system: HCC-827
In short: as §1

LOU-NH91 = system: LOU-NH91
In short: as §1

NCI-H2087 = system: NCI-H2087
In short: as §1

SW 900 = system: SW 900
In short: as §1

NCI-H1650 = system: NCI-H1650
In short: as §1

`CCCCCCCCCCCC1=C(O)C(=O)C=C(O)C1=O` [Embelin] + COc1cccc2cc(-c3nc([C@H]4CC[C@H](C(=O)O)CC4)n4ncnc(N)c34)[nH]c12 [OSI-027] (partner 0.5 µM) was tested, and the relative viability (LU99A; first compound 0.08 µM) was 0.323, the relative viability (LU99A; first compound 0.8 µM) was 0.358 and the relative viability (LU99A; first compound 2.53 µM) was 0.27. For the same compound, the relative viability (LU99A; first compound 8 µM) was 0.282, the relative viability (RERF-LC-KJ; first compound 0.08 µM) was 0.585 and the relative viability (RERF-LC-KJ; first compound 0.8 µM) was 0.529. It also gave a relative viability (RERF-LC-KJ; first compound 2.53 µM) of 0.545, a relative viability (RERF-LC-KJ; first compound 8 µM) of 0.494 and a relative viability (SW 1573; first compound 0.08 µM) of 0.6. It also gave a relative viability (SW 1573; first compound 0.8 µM) of 0.768, a relative viability (SW 1573; first compound 2.53 µM) of 0.896 and a relative viability (SW 1573; first compound 8 µM) of 0.573. The relative viability (SK-MES-1; first compound 0.08 µM) was 0.648, the relative viability (SK-MES-1; first compound 0.8 µM) was 0.66 and the relative viability (SK-MES-1; first compound 2.53 µM) was 0.572. For the same compound, the relative viability (SK-MES-1; first compound 8 µM) was 0.521, the relative viability (NCI-H1734; first compound 0.08 µM) was 0.648 and the relative viability (NCI-H1734; first compound 0.8 µM) was 0.771. It also gave a relative viability (NCI-H1734; first compound 2.53 µM) of 0.618, a relative viability (NCI-H1734; first compound 8 µM) of 0.608 and a relative viability (NCI-H727; first compound 0.08 µM) of 0.659. It also gave a relative viability (NCI-H727; first compound 0.8 µM) of 0.79, a relative viability (NCI-H727; first compound 2.53 µM) of 0.494 and a relative viability (NCI-H727; first compound 8 µM) of 0.709. It also gave a relative viability (HCC-78; first compound 0.08 µM) of 0.371, a relative viability (HCC-78; first compound 0.8 µM) of 0.369 and a relative viability (HCC-78; first compound 2.53 µM) of 0.343. It also gave a relative viability (HCC-78; first compound 8 µM) of 0.41, a relative viability (NCI-H522; first compound 0.08 µM) of 0.677 and a relative viability (NCI-H522; first compound 0.8 µM) of 0.714. For the same compound, the relative viability (NCI-H522; first compound 2.53 µM) was 0.752, the relative viability (NCI-H522; first compound 8 µM) was 0.641 and the relative viability (NCI-H2126; first compound 0.08 µM) was 0.666. The relative viability (NCI-H2126; first compound 0.8 µM) was 0.746, the relative viability (NCI-H2126; first compound 2.53 µM) was 0.804 and the relative viability (NCI-H2126; first compound 8 µM) was 0.795. It also gave a relative viability (NCI-H1563; first compound 0.08 µM) of 0.65, a relative viability (NCI-H1563; first compound 0.8 µM) of 0.772 and a relative viability (NCI-H1563; first compound 2.53 µM) of 0.71. It also gave a relative viability (NCI-H1563; first compound 8 µM) of 0.758, a relative viability (BEN; first compound 0.08 µM) of 0.287 and a relative viability (BEN; first compound 0.8 µM) of 0.341. For the same compound, the relative viability (BEN; first compound 2.53 µM) was 0.338, the relative viability (BEN; first compound 8 µM) was 0.289 and the relative viability (LK-2; first compound 0.08 µM) was 0.246. It also gave a relative viability (LK-2; first compound 0.8 µM) of 0.226, a relative viability (LK-2; first compound 2.53 µM) of 0.22 and a relative viability (LK-2; first compound 8 µM) of 0.194. The relative viability (NCI-H1792; first compound 0.08 µM) was 0.746, the relative viability (NCI-H1792; first compound 0.8 µM) was 0.884 and the relative viability (NCI-H1792; first compound 2.53 µM) was 0.711. It also gave a relative viability (NCI-H1792; first compound 8 µM) of 0.838, a relative viability (LCLC-97TM1; first compound 0.08 µM) of 0.376 and a relative viability (LCLC-97TM1; first compound 0.8 µM) of 0.638. The relative viability (LCLC-97TM1; first compound 2.53 µM) was 0.494, the relative viability (LCLC-97TM1; first compound 8 µM) was 0.589 and the relative viability (EKVX; first compound 0.08 µM) was 0.715. It also gave a relative viability (EKVX; first compound 0.8 µM) of 0.677, a relative viability (EKVX; first compound 2.53 µM) of 0.789 and a relative viability (EKVX; first compound 8 µM) of 0.743. The relative viability (NCI-H1944; first compound 0.08 µM) was 0.41, the relative viability (NCI-H1944; first compound 0.8 µM) was 0.462 and the relative viability (NCI-H1944; first compound 2.53 µM) was 0.358. The relative viability (NCI-H1944; first compound 8 µM) was 0.425, the relative viability (EMC-BAC-2; first compound 0.08 µM) was 0.375 and the relative viability (EMC-BAC-2; first compound 0.8 µM) was 0.47. The relative viability (EMC-BAC-2; first compound 2.53 µM) was 0.349, the relative viability (EMC-BAC-2; first compound 8 µM) was 0.353 and the relative viability (COR-L 105; first compound 0.08 µM) was 0.693. It also gave a relative viability (COR-L 105; first compound 0.8 µM) of 0.836, a relative viability (COR-L 105; first compound 2.53 µM) of 0.602 and a relative viability (COR-L 105; first compound 8 µM) of 0.621. The relative viability (NCI-H358; first compound 0.08 µM) was 0.774, the relative viability (NCI-H358; first compound 0.8 µM) was 1.01 and the relative viability (NCI-H358; first compound 2.53 µM) was 0.898. It also gave a relative viability (NCI-H358; first compound 8 µM) of 1.07, a relative viability (EPLC-272H; first compound 0.08 µM) of 0.256 and a relative viability (EPLC-272H; first compound 0.8 µM) of 0.319. It also gave a relative viability (EPLC-272H; first compound 2.53 µM) of 0.309, a relative viability (EPLC-272H; first compound 8 µM) of 0.255 and a relative viability (HCC-827; first compound 0.08 µM) of 0.749. The relative viability (HCC-827; first compound 0.8 µM) was 0.797, the relative viability (HCC-827; first compound 2.53 µM) was 0.836 and the relative viability (HCC-827; first compound 8 µM) was 0.866. The relative viability (LOU-NH91; first compound 0.08 µM) was 0.691, the relative viability (LOU-NH91; first compound 0.8 µM) was 0.851 and the relative viability (LOU-NH91; first compound 2.53 µM) was 0.743. The relative viability (LOU-NH91; first compound 8 µM) was 0.755, the relative viability (NCI-H2087; first compound 0.08 µM) was 0.5 and the relative viability (NCI-H2087; first compound 0.8 µM) was 0.543. It also gave a relative viability (NCI-H2087; first compound 2.53 µM) of 0.656, a relative viability (NCI-H2087; first compound 8 µM) of 0.628 and a relative viability (SW 900; first compound 0.08 µM) of 0.496. It also gave a relative viability (SW 900; first compound 0.8 µM) of 0.541, a relative viability (SW 900; first compound 2.53 µM) of 0.553 and a relative viability (SW 900; first compound 8 µM) of 0.347. For the same compound, the relative viability (NCI-H1650; first compound 0.08 µM) was 0.791, the relative viability (NCI-H1650; first compound 0.8 µM) was 0.801 and the relative viability (NCI-H1650; first compound 2.53 µM) was 0.653. It also gave a relative viability (NCI-H1650; first compound 8 µM) of 0.598.
